According to patent US9420817B2, “Agent for amelioration of dysphagia, and pharmaceutical or food composition comprising the same” (AJINOMOTO CO., INC., priority 2006, dated 2016):

System: cough receptor
Test: Cough receptor sensitivity test (nebulizer inhalation, C5)
Format: in vivo, human
Settings: seventeen healthy adults, inhaled by nebulizer for 15 seconds at intervals of one minute, 0.49 to 1,000 μM
Experimental: In the following Examples, 1 mL of an emulsifier (Tween 80) and 1 mL of 99.7% ethanol were added to 70 μL of the resultant extracted oil immediately before use, and the mixture was diluted with physiological saline (Otsuka) in Example 1 or with distilled water in Example 2, to thereby prepare solutions containing different concentrations of capsinoid. In the same way as above, 1 mL of an emulsifier (Tween 80) and 1 mL of 99.7% ethanol were added to 30.5 mg of capsaicin (manufactured by Sigma-Aldrich) immediately before use, and the mixture was diluted with physiological saline (Otsuka) in Example 1 or with distilled water in Example 2, to thereby prepare solutions containing different concentrations of capsaicin.
Seventeen healthy adults (mean age 36±2.6) inhaled the capsaicin solution prepared in Production Example (0.49 to 1,000 μM) by a nebulizer for 15 seconds at intervals of one minute, and the concentrations for causing five or more coughs by one aspiration (C5) were determined.
At a later date, the same test was performed for the same test subjects using the capsinoid solutions (0.49 to 1,000 μM) to determine C5, followed by comparison between C5 of the capsaicin solution and C5 of the capsinoid solution.

With `COc1cc(CNC(=O)CCCC/C=C/C(C)C)ccc1O` [capsaicin solution, capsaicin] the “C5 (concentration for causing five or more coughs by one aspiration)” value was 2.02 µM.
